Measurements published in article PMC6441019, “Prospective discovery of small molecule enhancers of an E3 ligase-substrate interaction” (Nature Communications, 2019).

Assays:
[1] = target: T1, Ser33/S37A β-catenin peptide ubiquitylation by SCFβ-TrCP (Homo sapiens, UniProt P35222+Q9Y297, S37A); test: In vitro ubiquitylation of Ser33/S37A β-catenin peptide; format: biochemical
T1 construct: Ubiquitylation of Ser33/S37A β-catenin peptide (residues 17–60) by SCF^β-TrCP; 6xHis-SMT3 (N, cleaved yes); made in house; host or cells: E. coli (β-TrCP1/Skp1); E. coli or SF9 (Cul1-Rbx1)
Method: (§1) Four micromolar of fluorescently-labeled β-catenin peptide (residues 17–60) were ubiquitylated in a buffer containing 25 mM Tris Cl (pH 7.5), 50 mM NaCl, 5 mM MgCl2, 2 mM ATP, and 1 mM DTT at room temperature in the presence of 62.5 μM Ubiquitin, 125 nM Ube1, 1.75 μM Cdc34A, and 100 nM neddylated SCF^β-TrCP in the presence or absence of compound (as indicated). Typically, individual reaction mixes with either Ubiquitin, Ube1 and Cdc34A or β-catenin, SCF^β-TrCP and compound were preincubated and subsequently mixed to initiate β-catenin ubiquitylation. Reactions were quenched by SDS loading buffer, resolved by SDS-PAGE and imaged for fluorescence. For full length β-catenin protein ubiquitylation 400 nM β-catenin and 400 nM SCF^β-TrCP were used instead.

[2] = target: T2, S33E/S37A β-catenin peptide binding to β-TrCP (Homo sapiens, UniProt P35222+Q9Y297, S33E/S37A); test: TR-FRET peptide binding assay, S33E/S37A peptide; conditions: read-out: binding affinity of S33E/S37A peptide
T2 construct: titrating BODIPY-FL-labeled β-catenin peptides (residues 17-48) against 300 pM β-TrCP; 6xHis-SMT3 (N, cleaved yes); made in house; host or cells: E. coli (co-expressed with BirA)
Method: (§2) Compounds were incubated in a 20 μl reaction volume with 300 pM biotinylated β-TrCP/Skp1 preincubated with 1.2 nM terbium-coupled streptavidin (Cisbio) and BODIPY-FL labeled β-catenin peptides (see figure legends for peptide details) in a white 384-well microplate (Perkin Elmer ProxiPlate), using a PBS buffer containing 0.01% Triton X-100 and 2 mM DTT with 2% final DMSO. […] Following 1-h incubation, plates were read for TR-FRET signal after excitation at 320 nm and read at 520 and 620 nm using an EnVision plate reader (Perkin Elmer). TR-FRET signal was calculated using a 520/620 nm ratio. Binding and enhancement data were fit to a standard Hill equation (Y = Bmin + (Bmax − Bmin)(X^h)/(X^h + EC50^h)) in Prism (GraphPad). Errors are standard error of the fit.

[3] = target: T3, pSer33/S37A β-catenin peptide binding to β-TrCP (Homo sapiens, UniProt P35222+Q9Y297, S37A); test: TR-FRET peptide binding and cooperativity assay, pSer33/S37A peptide
T3 construct: titrating BODIPY-FL-labeled β-catenin peptides (residues 17-48) against 300 pM β-TrCP; 6xHis-SMT3 (N, cleaved yes); made in house; host or cells: E. coli (co-expressed with BirA)
Method: as §2

[4] = target: T4, S33E/S37A β-catenin:β-TrCP interaction (Homo sapiens, UniProt P35222+Q9Y297, S33E/S37A); test: Lysate pulldown with recombinant β-catenin (HEK293T lysate); conditions: anti-myc pulldown
T4 construct: a ternary complex with the full-length S33E/S37A β-catenin and β-TrCP in cells; evaluated for their ability to pull down endogenous β-TrCP; expressed in transfected cells; host or cells: HEK293T (transient, FuGeneHD); β-TrCP endogenous
Method: Lysate pulldown with recombinant β-catenin: HEK293T cells were lysed by freeze thaw in lysis buffer (1× PBS, 2 mM DTT, 0.01% Triton X-100, proteases inhibitors (Sigma, P2714 and 11836170001), phosphatase inhibitors (Sigma, P5726 and P0044), 5 nM Calyculin A (Sigma, C5552)) at 85 µL of buffer to 1 × 10^6 cells. Lysates were clarified by centrifugation at 20,000 × g for 20 min at 4 °C and the supernatant was collected for subsequent use. Purified Myc/FLAG-tagged wild-type β-catenin protein at 2 µM was pretreated with 1 µM GSK3β (EMD Millipore, 14-306), 50 nM Axin (Enzo Life Sciences, ENZ-PRT130-0020), 200 nM CK1α (Life Technologies, PV3850), and 2 mM ATP at 30 °C for 60 min. This phosphorylated β-catenin, unphosphorylated WT β-catenin, or S33E/S37A β-catenin were each diluted into lysate to 100 nM, at the indicated compound concentrations, at a final DMSO concentration of 1% DMSO. Thirty-five microliters of these mixtures were incubated over 10 µL of anti-c-myc magnetic beads (Pierce, Catalog #PI88842), with rotation, at room temperature for 2 h. Beads were then pelleted, washed twice with 200 µL cold wash buffer (1×PBS, 2 mM DTT, 0.01% TX-100, 1% DMSO) containing compound at the same incubation concentration. Washed beads were resuspended in 30 µL SDS loading dye and analyzed by western analysis.

[5] = target: T5, full-length Ser33/S37A β-catenin protein ubiquitylation by SCFβ-TrCP (Homo sapiens, UniProt P35222+Q9Y297, S37A); test: In vitro ubiquitylation of full-length Ser33/S37A β-catenin protein; format: biochemical
T5 construct: 400 nM purified full-length S37A mutant β-catenin protein was ubiquitylated; 6xHis-SMT3 (N, cleaved yes); host or cells: HEK293T (β-catenin); E. coli (β-TrCP1/Skp1); E. coli or SF9 (Cul1-Rbx1)
T5 sequence (Q9Y297 1-569 isoform Q9Y297-2, stated change not applied): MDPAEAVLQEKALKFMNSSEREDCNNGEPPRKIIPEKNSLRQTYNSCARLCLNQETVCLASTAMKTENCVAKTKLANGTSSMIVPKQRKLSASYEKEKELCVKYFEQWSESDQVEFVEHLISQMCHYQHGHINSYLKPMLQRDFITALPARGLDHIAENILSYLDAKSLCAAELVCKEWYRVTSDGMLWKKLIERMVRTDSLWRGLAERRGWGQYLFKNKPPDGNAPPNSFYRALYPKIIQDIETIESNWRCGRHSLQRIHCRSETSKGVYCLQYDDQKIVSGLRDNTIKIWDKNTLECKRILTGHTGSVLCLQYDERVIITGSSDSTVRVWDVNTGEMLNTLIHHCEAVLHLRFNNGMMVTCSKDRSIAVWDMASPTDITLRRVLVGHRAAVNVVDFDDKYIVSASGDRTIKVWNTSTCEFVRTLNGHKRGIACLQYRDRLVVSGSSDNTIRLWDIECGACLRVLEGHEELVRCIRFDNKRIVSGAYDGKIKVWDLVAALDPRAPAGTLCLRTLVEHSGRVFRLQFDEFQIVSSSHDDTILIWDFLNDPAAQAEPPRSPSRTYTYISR
T5 sequence (P63208 whole entry partner): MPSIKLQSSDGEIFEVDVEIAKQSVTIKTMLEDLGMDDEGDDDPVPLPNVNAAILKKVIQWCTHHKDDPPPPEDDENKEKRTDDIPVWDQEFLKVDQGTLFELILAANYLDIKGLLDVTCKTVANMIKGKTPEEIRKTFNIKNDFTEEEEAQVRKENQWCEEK
T5 sequence (Q13616 whole entry partner): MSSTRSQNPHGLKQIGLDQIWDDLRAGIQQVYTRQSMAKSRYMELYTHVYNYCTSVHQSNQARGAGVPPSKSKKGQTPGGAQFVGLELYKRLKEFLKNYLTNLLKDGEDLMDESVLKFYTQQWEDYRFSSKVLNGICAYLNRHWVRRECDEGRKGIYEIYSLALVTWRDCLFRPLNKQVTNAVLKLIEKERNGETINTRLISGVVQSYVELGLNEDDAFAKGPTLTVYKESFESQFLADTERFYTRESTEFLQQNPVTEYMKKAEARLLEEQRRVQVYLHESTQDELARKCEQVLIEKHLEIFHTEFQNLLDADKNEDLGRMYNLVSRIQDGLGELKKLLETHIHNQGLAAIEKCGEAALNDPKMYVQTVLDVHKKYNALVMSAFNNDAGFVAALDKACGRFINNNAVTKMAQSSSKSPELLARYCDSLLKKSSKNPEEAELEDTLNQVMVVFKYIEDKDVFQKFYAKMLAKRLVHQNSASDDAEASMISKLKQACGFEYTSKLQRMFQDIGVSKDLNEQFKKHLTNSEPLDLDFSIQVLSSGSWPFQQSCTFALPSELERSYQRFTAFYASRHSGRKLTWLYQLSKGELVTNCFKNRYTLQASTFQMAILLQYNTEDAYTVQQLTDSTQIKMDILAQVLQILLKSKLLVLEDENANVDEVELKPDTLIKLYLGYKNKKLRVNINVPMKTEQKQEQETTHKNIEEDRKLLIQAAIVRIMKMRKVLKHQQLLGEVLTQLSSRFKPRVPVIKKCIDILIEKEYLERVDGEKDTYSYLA
T5 sequence (P62877 whole entry partner): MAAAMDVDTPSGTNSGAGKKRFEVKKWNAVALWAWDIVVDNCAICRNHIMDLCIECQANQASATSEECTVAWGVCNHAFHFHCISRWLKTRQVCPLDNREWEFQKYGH
T5 sequence (Q15843 1-76 partner limits assumed): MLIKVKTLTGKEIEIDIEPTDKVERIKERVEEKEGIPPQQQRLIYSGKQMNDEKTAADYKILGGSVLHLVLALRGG
T5 sequence (P35222 whole entry S37A): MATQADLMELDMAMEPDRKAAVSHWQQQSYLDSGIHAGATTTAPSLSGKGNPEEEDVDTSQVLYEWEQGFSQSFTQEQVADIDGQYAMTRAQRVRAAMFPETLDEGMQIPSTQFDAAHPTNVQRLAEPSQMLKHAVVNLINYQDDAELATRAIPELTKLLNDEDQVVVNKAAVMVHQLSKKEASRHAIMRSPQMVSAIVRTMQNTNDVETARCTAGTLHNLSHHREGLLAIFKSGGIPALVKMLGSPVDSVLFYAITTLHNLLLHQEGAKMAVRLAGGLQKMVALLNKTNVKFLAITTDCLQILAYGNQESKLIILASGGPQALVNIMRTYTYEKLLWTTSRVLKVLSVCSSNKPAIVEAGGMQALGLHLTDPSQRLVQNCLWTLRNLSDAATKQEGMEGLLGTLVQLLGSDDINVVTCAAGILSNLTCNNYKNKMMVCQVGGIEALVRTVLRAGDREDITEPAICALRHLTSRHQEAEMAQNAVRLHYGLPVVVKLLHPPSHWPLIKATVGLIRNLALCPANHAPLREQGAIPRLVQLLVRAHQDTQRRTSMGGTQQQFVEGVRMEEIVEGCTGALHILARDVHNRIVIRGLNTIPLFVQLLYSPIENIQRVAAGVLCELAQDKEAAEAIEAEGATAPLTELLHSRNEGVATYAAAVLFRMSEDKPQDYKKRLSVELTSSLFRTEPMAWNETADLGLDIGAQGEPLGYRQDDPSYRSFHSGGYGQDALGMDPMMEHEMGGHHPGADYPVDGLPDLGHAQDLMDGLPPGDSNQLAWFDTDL
Method: as §1

[6] = target: T6, S33E/S37A mutant β-catenin (Homo sapiens, UniProt P35222+Q9Y297, S33E/S37A); test: β-catenin degradation in HEK293T cells stably expressing S33E/S37A β-catenin; format: cell-based; conditions: HEK293T stable line, 6 h, western
T6 construct: Full-length β-catenin (Myc/FLAG-tagged; Origene); expressed in transfected cells
Method: HEK293T cells were plated in a 10 cm dish in regular growth media (DMEM + 10% FBS) and allowed to adhere to the plate overnight. The following day, cells were transfected with S33E/S37 β-catenin using FuGeneHD transfection reagent. Transfected cells were then selected with media containing 700 μg/ml Geneticin. A pooled population of selected cells were used for all described experiments.
HEK293T cells expressing S33E/S37A β-catenin were plated in six-well plates at a density of 9 × 10^5 cells/well. The following day, cells were incubated with compounds diluted in regular growth media to the appropriate concentration. The final concentration of DMSO for all cell treatments was kept at 0.5% or less. Cell treatments with the Nedd8 inhibitor (MLN4924) and the proteasome inhibitor (MG132) were performed at a final concentration of 5 μM and 10 μM respectively. Cycloheximide treatment was performed at a final concentration of 100 μg/ml.

[7] = target: T7, full-length S33E/S37A β-catenin protein ubiquitylation by SCFβ-TrCP (Homo sapiens, UniProt P35222+Q9Y297, S33E/S37A); test: In vitro ubiquitylation of full-length S33E/S37A β-catenin protein; format: biochemical
T7 construct: 6xHis-SMT3 (N, cleaved yes); host or cells: HEK293T (β-catenin); E. coli (β-TrCP1/Skp1); E. coli or SF9 (Cul1-Rbx1)
T7 sequence (Q9Y297 1-569 isoform Q9Y297-2, stated change not applied): as the sequence (Q9Y297 1-569 isoform Q9Y297-2, stated change not applied) above
T7 sequence (P63208 whole entry partner): as the sequence (P63208 whole entry partner) above
T7 sequence (Q13616 whole entry partner): as the sequence (Q13616 whole entry partner) above
T7 sequence (P62877 whole entry partner): as the sequence (P62877 whole entry partner) above
T7 sequence (Q15843 1-76 partner limits assumed): as the sequence (Q15843 1-76 partner limits assumed) above
T7 sequence (P35222 whole entry S33E/S37A): as the sequence (P35222 whole entry S37A) above, with S33E counted along it
Method: as §1

ubiquitylation of unphosphorylated Ser33/S37A β-catenin peptides [1]: potentiates the ubiquitylation
Kd [2]: 6 nM
cooperativity of peptide binding to β-TrCP [3]: > 1500 fold
interaction of S33E/S37A β-catenin with endogenous β-TrCP in cell lysate [4]: dose-dependent interaction
concentration at which degradation of S33E/S37A mutant β-catenin starts [6]: ~ 50 μM
ligand concentration at which ubiquitin chain formation resembles WT β-catenin protein [7]: ≥ 10 µM
enhancement of ubiquitylation of S33E/S37A β-catenin protein ([7]; varying concentration): markedly enhances
Structure (SMILES): N#Cc1cccc2c1CN(C(=O)c1c(Sc3c(Cl)cccc3Cl)cc(C(F)(F)F)[nH]c1=O)C2 [NRX-252114]
ubiquitylation of full-length Ser33/S37A β-catenin, comparison of enhancers [5]: higher degree of ubiquitylation than NRX-103094
level of ubiquitylation of full-length Ser33/S37A β-catenin ([5]; 40 μM compound): approaches that of WT full-length protein
